COC(=O)[C@H](c1ccccc1Cl)N1CCc2sccc2C1.O=S(=O)(O)O
solubility (mole fraction)
Conditions	273.15 K	278.15 K	283.15 K	288.15 K	293.15 K	298.15 K	303.15 K	308.15 K
in MTBE	6.2e-05	6.5e-05	7.5e-05	8.6e-05	0.000101	0.00011	0.000122	0.000125
in acetone	0.0188	0.0262	0.0339	0.0436	0.0474	0.0567	0.0672	0.076
in ethyl acetate	0.000278	0.000325	0.000342	0.000401	0.000457	0.000511	0.000543	0.000619
in isopropanol	0.00815	0.0113	0.0132	0.0198	0.0237	0.0305	0.0382	0.0463
in methyl acetate	0.000959	0.00103	0.00112	0.00122	0.00133	0.00151	0.00188	0.00214
in n-butanol	0.0502	0.056	0.0655	0.0686	0.0771	0.08	0.0869	0.0952
in sec-butanol	0.00377	0.00528	0.00678	0.00961	0.0127	0.016	0.0191	0.0238

Reference: BigSolDB 2.1
